In US6277845A, “Hydrazono-benzazulene derivatives, pharmaceutical compositions and intermediates” (Aventis Pharma S.A., priority 1997, dated 2001):
Where a name gives a salt, the structure may show the parent alone.

How the values were obtained:
[1] = biological target: human αvβ3 receptor (Homo sapiens, UniProt P05106+P06756); experiment: Bond displacement / binding competition test: Vitronectin/Vitronectin Receptor (αvβ3), plate assay; details: human vitronectin coated plates, 3 hours at ambient temperature, read-out: Binding competition test Vn/VR (αvβ3) IC50
Protocol: Pharmacological Study of the Products of the Invention 1--Study by the Products of the Invention of the Bond Displacement: Vitronectin/Vitronectin Receptor (αvβ3) 96-well MaxiSorp plates are coated overnight at 4° C., with 100 μl of human Vitronectin (cf Yatohgo et al. Cell., Structure and fraction 13: 281-292 (1988)) at 2 μg/ml, (Dilution in coating buffer).
The next day, the wells are emptied and the ligands (Vitronectin) are then fixed (see fixation buffer) for 1 hour at ambient temperature under gentle agitation.
The wells are washed six times (see washing buffer), then the following are added per well and in this order:
40 μl of incubation buffer, 10 μl of the dilution of the product to be tested, (the products are diluted in a 50/50 mixture of DMSO-H2 O) 50 μl of human αvβ 3 receptor (cf Pytela et al. Methods Enzymol (1987) 144:475) (dilution in incubation buffer, adapted according to the batch of receptor and according to the ligand).
The ligand, the human αvβ3 receptor and the products to be studied are incubated for 3 hours at ambient temperature under gentle agitation.
The wells are again washed six times, then incubated for 2 hours at ambient temperature under gentle agitation, in the presence of 100 μl of 4B12-HRP antibody, anti-receptor coupled to a peroxidase (the 4B12-HRP antibody is diluted in incubation buffer. The dilution is adapted according to the batch of receptor).
The wells are then washed six times before measurement of ligand-receptor bond is carried out using a peroxidase developer kit (TMB Microwell Peroxidase Substrate System Kirkegaard: Ref. cat. 50-76-00).
This kit contains a flask A of substrate (3,3', 5,5'-tetramethylbenzidine at 0.4 g/l) and a flask B (H2 O2 at 0.02% in Citrate/Citric acid buffer). Extemporaneously, one volume of A is mixed with one volume of B, then the reaction mixture is distributed at the rate of 100 µl/well. The enzymatic reaction develops in 12' for Vitronectin/αvβ3, then its development is stopped by the addition of 100 μl of 1M phosphoric acid.
The optical density is measured at 450 nm. […]
coating buffer: 0.05 M Carbonate, NaOH pH 9.6 fixation buffer: PBS containing 0.5% of BSA (pH 7.4) washing buffer: PBS containing 0.05% of Tween 20 (pH 7.4)
The following curve is plotted: the percentage of bond of human vitronectin as a function of the logarithm of the concentration of each product tested.
For each product the IC50 is determined according to the following formula:
BO=Maximum bond in the absence of any product
Bmin=Minimum bond in the presence of the highest concentration of product.

[2] = test system: bone resorption; details: Sato et al.; cited from earlier work
[3] = test system: bone resorption; details: in vivo in the rat, Fisher et al.; cited from earlier work
[4] = test system: osteoclasts; details: cited from earlier work

Row | Compound | IC50 [1] [nM] | inhibition of bone resorption in tissues cultured in vitro [2] | inhibition of bone resorption in vivo [3] | inhibition of the adhesion of the osteoclasts to bone [4]
1 | COc1c(SCCC(NC(=O)OCc2ccccc2)C(=O)O)cc2c(c1OC)C1=C(CCC1)C(=NNC1=NCCN1)CC2 (racemic) [Example 1, S-[4-[(4,5-dihydro-1H-imidazol-2-yl)hydrazono]-9,10-dimethoxy-1,2,3,4,5,6-hexahydro-8-benz[e]azulenyl]-N-[(phenylmethoxy)carbonyl]-DL-homocysteine] | 40 |  |  | 
2 | O=C(NC(CCSc1ccc2c(c1)CCC(=NN=C1NCCN1)C1=C2CCC1)C(=O)O)OCc1ccccc1 (racemic) [Example 4, S-[4-[(2-imidazolidinylidene)hydrazono]-1,2,3,4,5,6-hexahydro-8-benz[e]azulenyl]-N-[(phenylmethoxy)carbonyl]-DL-homocysteine] | 30 |  |  | 
3 | O=C(NC(CCS(=O)(=O)c1ccc2c(c1)CCC(=NNC1=NCCN1)C1=C2CCC1)C(=O)O)OCc1ccccc1 (stereo not shown) [Example 5, hydrochloride of 4-[[4-[(2-imidazoli-dinylidene)hydrazono]-1,2,3,4,5,6-hexahydro-8-benz[e]azulenyl]sulphonyl]-2-[[(phenylmethoxy)carbonyl]amino]-butanoic acid] | 33 |  |  | 
4 | O=C(NC(CC[S+]([O-])c1ccc2c(c1)CCC(=NN=C1NCCN1)C1=C2CCC1)C(=O)O)OCc1ccccc1 (stereo not shown) [Example 6, 4-[[4-[(2-imidazolidinylidene)hydrazono]-1,2,3,4,5,6-hexahydro-8-benz[e]azulenyl]sulphinyl]-2-[[(phenylmethoxy)carbonyl]amino]-butanoic acid] | 230 |  |  | 
5 | Echistatin |  | powerful inhibitor of bone resorption | powerful inhibitor of bone resorption | inhibitor of the adhesion of the osteoclasts to bone
